# Legend:
# [1] = system: ADC-219 in DH10B Escherichia coli; assay: MIC by broth microdilution, ADC-219 in DH10B E. coli; assay type: cell-based; conditions: DH10B E. coli expressing ADC-219 (Adup) from pBCSK−, FDC in iron-depleted cation-adjusted MH broth, mode of triplicate
# Method: (§1) Susceptibility testing to standard antibiotics was performed by broth microdilution according to 2024 Clinical and Laboratory Standards Institute (CLSI) guidelines ([38]). MICs for FDC were done in iron-depleted cation-adjusted Mueller-Hinton (MH) broth according to CLSI methods. All MICs were interpreted according to the 2024 CLSI guidelines ([38]). MICs are done in triplicate, and the mode MIC value is reported.
# (§2) blaADC-7 pBCSK− was cloned and expressed in E. coli DH10B cells as previously described for MIC determinations ([3]). The pBCSK-non-inducible phagemid vector has a chloramphenicol resistance gene used to aid selection. All other blaADC variants were synthesized by GenScript according to the blaADC-7 pBCSK− strategy, cloning into the XbaI/BamHI sites of the pBCSK− vector ([5]).
# [2] = target: ADC-33 (Acinetobacter baumannii, UniProt A7Y407); assay: Steady-state hydrolysis kinetics, ADC-33; assay type: biochemical
# Method: Steady-state kinetic parameters were determined by combining pure enzyme with antibiotic substrates in 50 mM NaH2PO4, pH 7.4, at room temperature. Changes in absorbance were measured on the Cary 60 UV−Vis spectrophotometer (Agilent Technologies) and converted to velocity using the change in extinction coefficient specific to nitrocefin (NCF) (ε482 = 17,400 M^−1·cm^−1), CAZ (ε260 8,660 M^−1·cm^−1), and cefiderocol (ε259 9,430 M^−1·cm^−1). The concentration of enzyme ranged from 0.1 to 1.0 µM, and all kinetic experiments were performed at least in triplicate. Initial velocities were fitted to the Michaelis-Menten equation, yielding kcat and KM values. The standard error for kcat/KM values was generated by factoring in the larger of the proportional standard errors for the individual kcat value and the KM value. For ADC/substrate combinations in which the KM was too large to accurately determine both kcat and KM values, the initial velocities at kcat/KM values were calculated from linear fits of vo in low [S] ranges (<0.08 * KM).
# [3] = system: ADC-218 in DH10B Escherichia coli; assay: MIC by broth microdilution, ADC-218 in DH10B E. coli; assay type: cell-based; conditions: DH10B E. coli expressing ADC-218 (Adup) from pBCSK−, FDC in iron-depleted cation-adjusted MH broth, mode of triplicate
# Method: as §1, §2
# [4] = target: T1, ADC-30 (Acinetobacter baumannii, UniProt A7XM81); assay: Competition kinetics with nitrocefin (Ki), ADC-30; assay type: biochemical; conditions: 3 min pre-incubation, Cheng-Prusoff corrected
# Method: (§3) For inhibition kinetics, utilizing NCF as a colorimetric substrate of ADCs, the inhibition constant (Ki) of CAZ and FDC with ADCs was determined using competition kinetics as previously described ([5]). After a 3 min pre-incubation of the enzyme (2 nM) with increasing concentration of the inhibitor, measurements of the initial velocities were performed with the addition of 100–200 µM NCF (twofold of the experimentally determined KM value). To determine the average velocities (v0), data from three experiments were fit to the followingequation: […]
# (§4) where vu represents the NCF uninhibited velocity and IC50 represents the inhibitor concentration that results in a 50% reduction of vu. The Ki value was corrected for the NCF affinity (KM values for each ADC) with the Cheng-Prusoff ([5]) equation: […]
# (§5) The standard error for Ki values was generated by factoring in the larger of the proportional standard errors for the individual IC50 value and the KM -NCF value.
# [5] = system: ADC-217 in DH10B Escherichia coli; assay: MIC by broth microdilution, ADC-217 in DH10B E. coli; assay type: cell-based; conditions: DH10B E. coli expressing ADC-217 (non-Adup) from pBCSK−, FDC in iron-depleted cation-adjusted MH broth, mode of triplicate
# Method: as §1, §2
# [6] = system: ADC-33 in DH10B Escherichia coli; assay: MIC by broth microdilution, ADC-33 in DH10B E. coli; assay type: cell-based; conditions: DH10B E. coli expressing ADC-33 (Adup) from pBCSK−, FDC in iron-depleted cation-adjusted MH broth, mode of triplicate
# Method: as §1, §2
# [7] = target: ADC-217 (Acinetobacter baumannii, UniProt Q6DRA1, V286E, form not given); assay: Competition kinetics with nitrocefin (Ki), ADC-217; assay type: biochemical; conditions: 3 min pre-incubation, Cheng-Prusoff corrected
# Method: as §3, §4, §5
# [8] = target: ADC-7 (Acinetobacter baumannii, UniProt Q6DRA1); assay: Competition kinetics with nitrocefin (Ki), ADC-7; assay type: biochemical; conditions: 3 min pre-incubation, Cheng-Prusoff corrected
# Method: as §3, §4, §5
# [9] = target: T1, ADC-30; assay: Timed electrospray ionization mass spectrometry of acylated adducts, ADC-30; assay type: binding; conditions: ADC-30, +468 Da adduct, at 1 h; enzyme:substrate 1:25
# Method: β-Lactamase (5 µg) was incubated with substrate at a molar ratio of 1:25 (FDC, CAZ, meropenem [MEM]) in sterile 10 mM PBS, pH 7.4, for a total reaction volume of 20 µL (t = 30 s, 1 min, 15 min, 30 min, 1 h, 2 h, and 24 h). Reactions were quenched with 1% acetonitrile and 0.1% formic acid. Samples were analyzed using Q-TOF Waters Synapt-G2-Si and a Waters Acquity ultrapressure liquid chromatography BEH C18 column (1.7 µm […]; 2.1 × 50 mm). MassLynx v.4.1 was used to deconvolute protein peaks. The tune settings for each data run were as follows: capillary voltage at 3.5 kV, sampling cone at 35, source offset at 35, source temperature 100°C, desolvation temperature 500°C, cone gas at 100 L/h, desolvation gas at 800 L/h, and nebulizer bar at 6.0. Mobile phase A was 0.1% formic acid-water. Mobile phase B was 0.1% formic acid-acetonitrile. The mass accuracy for this system is ±5 Da. Mass spectrometry experiments were performed once over a range of time points.
smiles,measurement,setting,value
"CC(C)(O/N=C(\C(=O)N[C@@H]1C(=O)N2C(C(=O)[O-])=C(C[n+]3ccccc3)CS[C@H]12)c1csc(N)n1)C(=O)O [CAZ, ceftazidime]",MIC,[1],64 µg/mL
same,fold higher kcat/KM for CAZ versus FDC,[2],~ 10 fold
same,MIC,[3],2050 µg/mL
same,Ki,[4],3.23 ± 0.31 µM
same,MIC,[5],128 µg/mL
same,MIC,[6],1020 µg/mL
same,Ki,[7],260 ± 14 nM
same,Ki,[8],2100 ± 250 nM
same,percentage of acylated adduct,[9],20%
